The subject of assay [1] is RTV-011073/241V. Kind of assay: Phenotypic susceptibility assay, RTV-011073/241V. The assay is classed as cell-based, HIV. Particulars: RTV-011073 with V241S reverted. The text has this:
(§1) The resistance test vectors containing a functional luciferase gene cassette were constructed and host cells were transfected with the resistance test vector DNA. The resistant test vectors contained patient-derived reverse transcriptase and protease sequences that were either susceptible or resistant to the antiretroviral agents, such as nucleoside reverse transcriptase inhibitors, (NRTIs) non-nucleoside reverse transcriptase inhibitors […] protease inhibitors. The resistance test vector viral particles produced by transfecting the resistance test vector DNA into host cells, either in the presence or absence of PRIs, were used to infect target host cells grown either in the absence of NRTIs or NNRTIs, or in the presence of increasing concentrations of the drug. The amount of luciferase activity produced in infected target host cells in the presence of varying concentrations of drug was compared to the amount of luciferase produced in infected target host cells in the absence of drug. “Drug resistance” was measured as the amount of drug required to inhibit by 50% the luciferase activity detected in the absence of drug (inhibitory concentration 50%, IC50). The IC50 values were determined by plotting percent drug inhibition vs. log10 drug concentration. Stimulation of viral replication was measured as the percent increase in luciferase activity detected when infection occurs in the presence of drug as compared to in the absence of drug.
(§2) Host cells were seeded in 10-cm-diameter dishes and were transfected several days after plating with resistance test vector plasmid DNA and the envelope expression vector. Transfections were performed using a calcium-phosphate precipitation procedure. The cell culture media containing the DNA precipitate was replaced with fresh medium, from one to 24 hours, after transfection. Cell culture media containing resistance test vector viral particles was harvested one to four days after transfection and was passed through a […] filter before being used to infect target host cells, or being stored at −80° C. HIV capsid protein (p24) levels in the harvested cell culture media were determined by an EIA method as described by the manufacturer (SAIC; Frederick, Md.). Before infection, target cells (293 and 293/T) were plated in cell culture media. Control infections were performed using cell culture media from mock transfections (no DNA) or transfections containing the resistance test vector plasmid DNA without the envelope expression plasmid. One to three or more days after infection, the media was removed and cell lysis buffer (Promega) was added to each well. Cell lysates were assayed for luciferase activity (FIG. 3). The inhibitory effect of the drug was determined using the following equation:
(§3) % luciferase inhibition=1−(RLUluc[drug]÷RLUluc)×100
(§4) where RLUluc [drug] is the Relative Light Unit of luciferase activity in infected cells in the presence of drug, and RLUluc is the Relative Light Unit of luciferase activity in infected cells in the absence of drug. IC50values were obtained from the sigmoidal curves that were generated from the data by plotting the percent inhibition of luciferase activity vs. the log10 drug concentration. The percent luciferase stimulation is the negative of the % inhibition calculated using the formula above.
(§5) A resistance test vector containing all of the mutations present in RTV-011073 except for the V241S and the T277K was constructed and tested using the phenotypic assay described earlier. The results were compared to those determined using the parent RTV-011073. We determined the pattern of phenotypic susceptibility to the NNRTIs, delavirdine, nevirapine and efavirenz, in the reverted vector RTV-011073/241V/277T. […] A resistance test vector containing all of the mutations present in RTV-011073 except for the V241S was constructed and tested using the phenotypic assay described earlier. The results were compared to those determined using the parent RTV-011073. […]

The test system of assay [2] is RTV-V241S. Kind of assay: Phenotypic susceptibility assay, RTV-V241S. The assay is classed as cell-based, HIV-1. Particulars: site-directed V241S alone.
Description: as §1, §2, §3, §4, §5

The subject of assay [3] is codon 181 mutant HIV-1. The settings on record: cited from earlier work.
The test system of assay [4] is Patient-derived resistance test vectors containing mutations at 241 in addition to other NNRTI-resistance mutations. Kind of assay: Phenotypic susceptibility assay, patient-derived RTVs with mutations at 241. The format is cell-based, HIV. Particulars: 241 plus e.g. 101, 103, 106, 135, 138, 190. The source says: The resistance test vectors containing a functional luciferase gene cassette were constructed and host cells were transfected with the resistance test vector DNA. The resistant test vectors contained patient-derived reverse transcriptase and protease sequences that were either susceptible or resistant to the antiretroviral agents, such as nucleoside reverse transcriptase inhibitors, (NRTIs) non-nucleoside reverse transcriptase inhibitors (NRTIs) and protease inhibitors. […] The IC50 values were determined by plotting percent drug inhibition vs. log10 drug concentration. Stimulation of viral replication was measured as the percent increase in luciferase activity detected when infection occurs in the presence of drug as compared to in the absence of drug.
Host cells were seeded in 10-cm-diameter dishes and were transfected several days after plating with resistance test vector plasmid DNA and the envelope expression vector. […] HIV capsid protein (p24) levels in the harvested cell culture media were determined by an EIA method as described by the manufacturer (SAIC; Frederick, Md.). […] The inhibitory effect of the drug was determined using the following equation: […]

Assay [5] has as its system viral load. Put plainly: Viral load measurements in patient (Example 14). The assay is classed as in vivo.
Assay [6] has as its target P236L substitution RT (Human immunodeficiency virus type 1 group M subtype B, UniProt P04585, P823L). Particulars: cited from earlier work.

Each structure is given as a SMILES string.

As to `CC(C)Nc1cccnc1N1CCN(C(=O)c2cc3cc(NS(C)(=O)=O)ccc3[nH]2)CC1` [delavirdine], in assay [1], the “drug-dependent stimulation of viral replication” value (“drug-dependent stimulation” below) is “no longer negative inhibition” and the “reductions in susceptibility compared to wild type control RTV” value (from here on “reductions … to wild type control RTV”) turned out to be 59 fold. For the same compound, in assay [2], the “drug-dependent stimulation” value is recorded as about 25% and the “reductions … to wild type control RTV” value is 6 fold.
On to `O=C1Nc2ccc(Cl)cc2[C@@](C#CC2CC2)(C(F)(F)F)O1` [efavirenz], for which the “susceptibility / activity in the presence of the Y181C mutation” value in assay [3] was “retains activity”. Moreover, the reductions in susceptibility in assay [4] was over 470 fold. Besides, in assay [1], the “drug-dependent stimulation” value is on record as “no longer negative inhibition” and the “reductions … to wild type control RTV” value worked out at 54 fold. In assay [2], the “drug-dependent stimulation” value is recorded as “no drug-dependent stimulation” and the “reductions … to wild type control RTV” value is reported as 3 fold.
`Cc1ccnc2c1NC(=O)c1cccnc1N2C1CC1` [nevirapine]: the reduction in sensitivity in assay [3] (Y181C mutation) is on record as 100 fold. In assay [4], the reductions in susceptibility is over 600 fold. The “viral load after removal of nevirapine from the regimen” value in assay [5] (patient on d4T, nevirapine, nelfinavir, saquinavir, baseline ~1,200,000 copies/ml) is recorded as < 300,000 copies/ml. In assay [5] (same patient), the “reduction in viral load after removal of nevirapine from the regimen” value stood at 4 fold. Also, in assay [1], the “drug-dependent stimulation” value is on record as “no longer negative inhibition” and the “reductions … to wild type control RTV” value is recorded as 146 fold. For the same compound, in assay [2], the “drug-dependent stimulation” value is about 30% and the “reductions … to wild type control RTV” value is recorded as 9 fold. Further, the “reduction of the IC50” value in assay [6] is 7- to 10 fold.
